The values below come from US20250230159A1, “FUSED HETEROCYCLIC COMPOUNDS AS MODULATORS OF RAS SIGNALLING” (Shenzhen Ionova Life Science Co., Ltd., priority 2022, published 2025).

Read-outs that look alike come from different tables or passages of the source.

Assay [1] has as its target KRAS-G12C/SOS1 interaction (Homo sapiens (Human), UniProt Q07889). Put plainly: Protein-Protein Interaction (PPI) assay, SOS1-KRAS binding assay kit (HTRF). How it is done: This Example illustrates that exemplary compounds of the present invention blockade the interaction of SOS1 to KRAS protein.
The ability of a compound of Formula (I) to block the interaction of SOS1 to KRAS was measured using a SOS1-KRAS binding assay kit (CAT #63ADK000CB16PEG, Cisbio). Utilizing HTRF (Homogeneous Time-resolved Fluorescence) technology, the assay enables simple and rapid characterization of compound and antibody blockers in a high throughput format. The interaction between Tag1-SOS1 and Tag2-KRAS-G12C is detected by using anti-Tag1-Terbium antibody (HTRF donor) and anti-Tag2-XL665 antibody (HTRF acceptor). When the donor and acceptor antibodies are brought into close proximity due to SOS1 and KRAS-G12C binding, excitation of the donor antibody triggers fluorescent resonance energy transfer (FRET) towards the acceptor antibody, which in turn emits specifically at 665 nm. This specific signal is directly proportional to the extent of KRAS-G12C/SOS1 interaction.
The assay was carried according to the manufacturer's instructions. Compounds at an initial concentration of 10 mM in DMSO were first serially diluted on a 384-well plate using assay buffer at a ratio of 1:3 for a total of 9 concentrations with each of a volume of 20 μL. Blank buffer was included as the negative control. The final compound solution was in the buffer solution with 1% DMSO. Then, in each well of a 384-well plate, a solution of 2 μL compound solution, 4 μL tagged SOS1 and KRAS (G12C) protein stocks, respectively, and 10 μM GTP was incubated for 15 min. 10 μL mixture of […] antibody and anti-Tag1-Terbium antibody was introduced to each individual well. After 2 hours incubation at room temperature, fluorescence readout was measured with a Pelkin Elmer multiple plate reader VICTOR Nivo.
Excitation was from over a range of 245-395 nm, and emission from the donor (emission 1) was detected at […] and emission from the acceptor (emission 2) was detected at (606.5-623.5) nm. The HTRF ratio was calculated using the formula: (emission 1 @665 nm/emission 2 @620 nm)×10000. Thus, compounds blocking KRAS-G12C/SOS1 interaction will cause a reduction in HTRF signal ratio. The IC50 values were then calculated with the Graph pad Prism software.
(In general: Time-resolved FRET reads energy transfer from a long-lived donor to a nearby acceptor.)

The subject of a further assay is pERK in Hela cells. Put plainly: Phospho-ERK (p-ERK) assay in Hela cells. As to conditions: Homo sapiens, β-actin normalized. The format is cell-based. The procedure:
This Example illustrates that exemplary compounds of the present invention prevent KRas-mediated GTP nucleotide exchange mediated by SOS1 to inhibit KRas activity, thereby inhibiting the generation of the downstream effector pERK.
Hela cells (23,000/w) were seeded in a black clear flat bottom 96-well cell culture plate (Corning, #3904) and incubated at 37° C. overnight. At day 2, cells were dosed with compounds of Formula (I) with a 10 μM starting concentration and serially diluted 3× for a total of 9 concentrations. The cells were incubated for 1 hour with the compounds solubilized in DMSO at 37° C. Cells were immediately fixed by adding 100 μL of 8% formaldehyde to all wells in a fume hood and the plates were incubated for 1 hr at room temperature. The formaldehyde was discarded from the plates and washed 5 times and each time for 5 min with 200 μL of Triton Washing Solution (0.1% Triton in PBS) each time to permeabilize the cells. Cells were then blocked with 150 μL of Odyssey blocking buffer (LI-COR Biosciences #927-50010) at room temperature on a shaker. The blocking buffer was discarded and 50 μL of primary antibodies pERK (cell signaling Technology #4370; Rabbit, 1:500) and β-actin (AF5001; Mouse, 1:2000) diluted in Odyssey blocking buffer was added. The plates were incubated overnight at 4° C. on a shaker.
On day 3, the primary antibody solution was removed. Each plate was washed 5× times with 200 μL of 1×PBST (PBS+0.1% Tween 20) and incubated with 50 μL of secondary antibodies: Anti-Rabbit (LI-COR Biosciences #926-32211) and Anti-Mouse (LI-COR Biosciences #68070) at 1:1000 dilution in Odyssey blocking buffer at room temperature on a shaker for 1 hour (protected from light). The secondary antibody solution as removed and each plate was washed with PBST 5× times. Any liquid remaining was discarded and the plate was imaged using the Licor Odyssey machine according to the manufacturer's instruction, using a set focus length at 3.5 mm and both 800 nm and 700 nm filters. The 3-actin normalized scan values for each well were divided by the average of vehicle wells to get the % of p-ERK inhibition. The IC50 values were then calculated with the Graph pad Prism software. In general, p-ERK IC50 data are in line with the PPI IC50 data.

KRAS-G12C/SOS1 interaction, sequence (Q07889 whole entry, stated change not applied): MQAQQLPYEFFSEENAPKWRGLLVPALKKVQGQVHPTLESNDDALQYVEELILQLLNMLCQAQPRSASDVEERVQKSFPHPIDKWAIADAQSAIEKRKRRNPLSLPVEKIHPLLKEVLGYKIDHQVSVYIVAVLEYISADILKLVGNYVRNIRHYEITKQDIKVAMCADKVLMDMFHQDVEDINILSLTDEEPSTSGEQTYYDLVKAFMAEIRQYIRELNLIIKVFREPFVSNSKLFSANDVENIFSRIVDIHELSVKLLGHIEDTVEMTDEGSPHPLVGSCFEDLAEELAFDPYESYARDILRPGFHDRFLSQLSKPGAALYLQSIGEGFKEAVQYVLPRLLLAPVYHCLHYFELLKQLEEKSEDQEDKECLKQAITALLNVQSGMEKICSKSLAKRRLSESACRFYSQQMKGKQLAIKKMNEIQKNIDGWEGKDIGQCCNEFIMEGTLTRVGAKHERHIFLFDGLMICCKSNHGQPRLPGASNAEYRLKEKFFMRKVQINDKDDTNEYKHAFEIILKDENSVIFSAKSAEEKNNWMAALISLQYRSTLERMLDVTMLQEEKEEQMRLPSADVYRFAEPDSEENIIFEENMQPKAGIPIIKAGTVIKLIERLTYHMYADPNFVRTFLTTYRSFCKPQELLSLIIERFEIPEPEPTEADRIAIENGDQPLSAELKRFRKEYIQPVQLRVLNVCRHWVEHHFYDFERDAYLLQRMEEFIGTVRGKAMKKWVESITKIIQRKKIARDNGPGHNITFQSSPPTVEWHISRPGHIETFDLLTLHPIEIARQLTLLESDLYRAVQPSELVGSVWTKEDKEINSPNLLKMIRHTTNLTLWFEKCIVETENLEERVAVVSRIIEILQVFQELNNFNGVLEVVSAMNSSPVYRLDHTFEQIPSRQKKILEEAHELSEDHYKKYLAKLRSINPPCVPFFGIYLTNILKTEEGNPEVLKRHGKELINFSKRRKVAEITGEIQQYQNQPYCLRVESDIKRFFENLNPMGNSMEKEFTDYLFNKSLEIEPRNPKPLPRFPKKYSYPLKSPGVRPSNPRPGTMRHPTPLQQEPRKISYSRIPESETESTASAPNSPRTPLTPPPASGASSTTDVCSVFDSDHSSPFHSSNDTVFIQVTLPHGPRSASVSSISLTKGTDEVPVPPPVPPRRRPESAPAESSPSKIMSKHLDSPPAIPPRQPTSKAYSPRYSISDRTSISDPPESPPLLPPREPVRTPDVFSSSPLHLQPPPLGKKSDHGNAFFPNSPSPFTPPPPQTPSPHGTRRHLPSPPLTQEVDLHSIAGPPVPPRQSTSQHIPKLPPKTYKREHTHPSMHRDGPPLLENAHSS

By IC50 is commonly meant the midpoint of a concentration-inhibition curve. Consider `CCOC(=O)c1cc2c(N[C@H](C)c3cc(N)cc(C(F)(F)F)c3)nc(C)nc2n2ncnc12` [Example 1, Ethyl (R)-6-((1-(3-amino-5-(trifluoromethyl)phenyl)ethyl)amino)-8-methyl-[1,2,4]triazolo[1′,5′:1,6]pyrido[2,3-d]pyrimidine-4-carboxylate], for which the IC50 was greater than 100 nM in assay [1] and greater than 100 nM in the assay with pERK in Hela cells (Table 2, 1 hour with compound).
`Cc1nc(N[C@H](C)c2cc(N)cc(C(F)(F)F)c2)c2cc(C(=O)N3CCOCC3)c3ncnn3c2n1` [Example 2, (R)-(6-((1-(3-amino-5-(trifluoromethyl)phenyl)ethyl)amino)-8-methyl-[1,2,4]triazolo[1′,5′:1,6]pyrido[2,3-d]pyrimidin-4-yl)(morpholino)methanone]: the IC50 was less than 100 nM in assay [1] (read-out: PPI Assay IC50) and greater than 100 nM in the assay with pERK in Hela cells (Table 1, 1 hour with compound).
For `Cc1nc(N[C@H](C)c2cc(N)cc(C(F)(F)F)c2)c2cc(C(=O)N3CCN(C)CC3)c3ncnn3c2n1` [Example 3] the same measures were less than 100 nM and less than 100 nM.
For `COCCN1CCN(C(=O)c2cc3c(N[C@H](C)c4cc(N)cc(C(F)(F)F)c4)nc(C)nc3n3ncnc23)CC1` [Example 4] the same measures were less than 100 nM and greater than 100 nM.
As for `Cc1nc(N[C@H](C)c2cc(N)cc(C(F)(F)F)c2)c2cc(C(=O)N3CCN(CCO)CC3)c3ncnn3c2n1` [Example 5], the IC50 in assay [1] (read-out: PPI Assay IC50) is less than 100 nM; in the assay with pERK in Hela cells (Table 1, 1 hour with compound), greater than 100 nM.
For `Cc1nc(N[C@H](C)c2cc(N)cc(C(F)(F)F)c2)c2cc(C(=O)N3CC4(COC4)C3)c3ncnn3c2n1` [Example 6], the IC50 was less than 100 nM in assay [1] (read-out: PPI Assay IC50) and less than 100 nM in the assay with pERK in Hela cells (Table 1, 1 hour with compound).
Regarding `Cc1nc(N[C@H](C)c2cccc(C(F)F)c2F)c2cc(C(=O)N3CCOCC3)c3ncnn3c2n1` [Example 11], the IC50 in assay [1] (read-out: PPI Assay IC50) was less than 100 nM; in the assay with pERK in Hela cells (Table 1, 1 hour with compound), greater than 100 nM.
For `Cc1nc(N[C@H](C)c2cccc(C(F)F)c2F)c2cc(C(=O)N3[C@@H](C)COC[C@@H]3C)c3ncnn3c2n1` [Example 13] the same measures were less than 100 nM and less than 100 nM.
Consider `Cc1nc(N[C@H](C)c2cccc(C(F)F)c2F)c2cc(C(=O)N3CCSCC3)c3ncnn3c2n1` [Example 17], for which the IC50 in assay [1] (read-out: PPI Assay IC50) was less than 100 nM; in the assay with pERK in Hela cells (Table 1, 1 hour with compound) it was greater than 100 nM.
For `Cc1nc(N[C@H](C)c2cccc(C(F)F)c2F)c2cc(C(=O)N3CCS(=O)(=O)CC3)c3ncnn3c2n1` [Example 18] the same measures were less than 100 nM and greater than 100 nM.
Take `Cc1nc(N[C@H](C)c2cccc(C(F)F)c2F)c2cc(C(=O)N3CCN(C)CC3)c3ncnn3c2n1` [Example 19]: the IC50 was less than 100 nM in assay [1] (read-out: PPI Assay IC50) and greater than 100 nM in the assay with pERK in Hela cells (Table 1, 1 hour with compound).
For `CC(=O)N1CCN(C(=O)c2cc3c(N[C@H](C)c4cccc(C(F)F)c4F)nc(C)nc3n3ncnc23)CC1` [Example 20] the same measures were less than 100 nM and greater than 100 nM.
For `Cc1nc(N[C@H](C)c2cccc(C(F)F)c2F)c2cc(C(=O)N3CCN(C(=O)N(C)C)CC3)c3ncnn3c2n1` [Example 21] the same measures were less than 100 nM and greater than 100 nM.
In the case of `Cc1nc(N[C@H](C)c2cccc(C(F)F)c2F)c2cc(C(=O)N3CCN(CCO)CC3)c3ncnn3c2n1` [Example 23], the IC50 in assay [1] (read-out: PPI Assay IC50) was less than 100 nM; with pERK in Hela cells (Table 1, 1 hour with compound) it was greater than 100 nM.
For `Cc1nc(N[C@H](C)c2cccc(C(F)F)c2F)c2cc(C(=O)N3CCN(C4COC4)CC3)c3ncnn3c2n1` [Example 24] the same measures were less than 100 nM and greater than 100 nM.
As to `Cc1nc(N[C@H](C)c2cccc(C(F)F)c2F)c2cc(C(=O)N3CC4(COC4)C3)c3ncnn3c2n1` [Example 27], the IC50 in assay [1] (read-out: PPI Assay IC50) was less than 100 nM; with pERK in Hela cells (Table 1, 1 hour with compound), less than 100 nM.
With `Cc1nc(N[C@H](C)c2cccc(C(F)F)c2F)c2cc(C(=O)N3C[C@H]4COC[C@H]4C3)c3ncnn3c2n1` [Example 29], the IC50 was less than 100 nM in assay [1] (read-out: PPI Assay IC50) and less than 100 nM in the assay with pERK in Hela cells (Table 1, 1 hour with compound).
As to `Cc1nc(N[C@H](C)c2cccc(C(F)F)c2F)c2cc(C(=O)N3CCCC34CCOC4)c3ncnn3c2n1` (some centres unmarked) [Example 31], the half-maximal inhibitory concentration (IC50) was less than 100 nM in assay [1] (read-out: PPI Assay IC50) and greater than 100 nM with pERK in Hela cells (Table 1, 1 hour with compound).
For `Cc1nc(N[C@H](C)c2cccc(C(F)F)c2F)c2cc(C(=O)N3CCC4(COC4)C3)c3ncnn3c2n1` [Example 33] the same measures were less than 100 nM and greater than 100 nM.
For `Cc1nc(N[C@H](C)c2cccc(C(F)F)c2F)c2cc(C(=O)N3CC4CC(C3)O4)c3ncnn3c2n1` [Example 35] the same measures were less than 100 nM and greater than 100 nM.
For `Cc1nc(N[C@H](C)c2cccc(C(F)F)c2F)c2cc(C(=O)N3C4CCC3CN(C)C4)c3ncnn3c2n1` [Example 37] the same measures were less than 100 nM and greater than 100 nM.
Consider `Cc1nc(N[C@H](C)c2cccc(C(F)(F)F)c2C)c2cc(C(=O)N3CC4(COC4)C3)c3ncnn3c2n1` [Example 38], for which the half-maximal inhibitory concentration (IC50) in assay [1] (read-out: PPI Assay IC50) is less than 100 nM; with pERK in Hela cells (Table 1, 1 hour with compound), greater than 100 nM.
For `Cc1nc(N[C@H](C)c2cccc(C(F)(F)F)c2F)c2cc(C(=O)N3CC4(COC4)C3)c3ncnn3c2n1` [Example 39] the same measures were less than 100 nM and greater than 100 nM.
For `C[C@@H](Nc1ncnc2c1cc(C(=O)N1CC3(COC3)C1)c1ncnn12)c1cccc(C(F)F)c1F` [Example 42] the same measures were less than 100 nM and greater than 100 nM.
`CC(=O)N1CCC(C)(c2cc3c(N[C@H](C)c4cccc(C(F)F)c4F)ncnc3n3cnnc23)CC1` [Example 128]: in assay [1] (read-out: PPI Assay IC50), the IC50 is less than 100 nM.
Same read-out and setting: then `[2H]C([2H])([2H])OC1(c2cc3c(N[C@H](C)c4cccc(C(F)F)c4F)ncnc3n3cnnc23)CCN(C(C)=O)CC1` [Example 133, (R)-1-(4-(4-((1-(3-(difluoromethyl)-2-fluorophenyl)ethyl)amino)-[1,2,4]triazolo[4′,3′:1,6]pyrido[2,3-d]pyrimidin-6-yl)-4-(methoxy-d3)piperidin-1-yl)ethan-1-one], with less than 100 nM; and `CC(=O)NC1(c2cc3c(N[C@H](C)c4cccc(C(F)F)c4F)ncnc3n3cnnc23)CCN(C(C)=O)CC1` [Example 134, (R)—N-(1-acetyl-4-(4-((1-(3-(difluoromethyl)-2-fluorophenyl)ethyl)amino)-[1,2,4]triazolo[4′,3′:1,6]pyrido[2,3-d]pyrimidin-6-yl)piperidin-4-yl)acetamide], with less than 100 nM.
The same measure, in the same setting: the result for `Cc1nc(N[C@H](C)c2cccc(C(F)F)c2F)c2cc(C3CCSCC3)c3nncn3c2n1` [Example 138] reads less than 100 nM; that for `CC(=O)N1CCC(c2cc3c(N[C@H](C)c4cccc(C(F)F)c4F)nc(C)nc3n3cnnc23)CC1(C)C` (some centres unmarked) [Example 139], less than 100 nM.
In the case of `CC(=O)N1CCC(c2cc3c(N[C@H](C)c4cccc(C(F)F)c4F)nc(C)nc3n3c(C)nnc23)CC1` [Example 141], the IC50 in assay [1] is greater than 100 nM.
Turning to `Cc1nc(N[C@H](C)c2cccc(C(F)F)c2F)c2cc(C3CCN(S(C)(=O)=O)CC3)c3nnnn3c2n1` [Example 143], the IC50 in assay [1] (read-out: PPI Assay IC50) is less than 100 nM.
Same read-out and setting: the result for `COCC(=O)N1CCC(c2cc3c(N[C@H](C)c4cccc(C(F)F)c4F)nc(C)nc3n3nnnc23)CC1` [Example 144] reads less than 100 nM.
